Results taken from US4973586A, “Fused benzazepines, compositions of, and medical use thereof” (Schering Corporation, priority 1988, dated 1990).
Counter-ions that a name gives are not always drawn. Like-named read-outs stand apart in the source and are kept apart here.

What was measured:
D-2 receptor = biological target: T1, D-2 receptor (Rattus norvegicus, UniProt P61169); assay: Competitive inhibition assay, displacement of 3H-spiperone (D-2 receptor binding); parameters: species or system rat (male Sprague-Dawley, striatal tissue)
T1 construct: Striatal tissue was excised, pooled, and homogenized; from tissue; host or cells: rat striatum, washed membrane pellet (male Sprague-Dawley rats, Charles River)
From the text: (§1) Many compounds capable of effecting reproducible physiological changes in neural tissues are believed to operate by binding at one or more receptor sites.
(§2) A methodology for characterization of D-1 and D-2 receptor binding and an interpretation of the data are described by Billard et al., Life Sciences 35, 1885 (1984) in which the binding of the benzazepine (R)-(+)-8-chloro-2,3,4,5-tetrahydro-3-methyl-5-phenyl-1H- 3-benzazepin-7-ol hemimaleate (SCH 23390) to the dopamine D-1 receptor is characterized. A selectivity for D-1 receptor binding as compared to D-2 receptor binding is believed to confer the therapeutic advantage of avoiding troublesome and potentially irreversible neurological side effects associated with D-2 receptor occupancy.
(§3) Tritiated SCH 23390 and tritiated spiperone (a potent D-2 receptor ligand) were obtained as described in the Billard et al. reference supra and serially diluted in 0.05M Tris buffer, pH 7.4, as required. Compounds of this invention were synthesized as disclosed herein and diluted in 0.05M Tris buffer, pH 7.4, as required.
(§4) Male Sprague-Dawley rats (200 to 250 g) from Charles River Breeding Laboratories, Mass. were used to obtain brain tissue. The rats were humanely sacrificed and their brains removed and placed on ice. Striatal tissue was excised, pooled, and homogenized (Brinkman Polytron, 10 sec) in 100 volumes (w/v) of ice cold 50 mM Tris buffer, pH 7.4 (at 25° C.). The homogenate was centrifuged at 20,000 xg for 10 min. The resultant pellet was rehomogenized in Tris buffer and centrifuged again. The final pellet was resuspended in 50 mM Tris buffer pH 7.4 containing 120 mM NaCl, 5 mM KCl, 2 mM CaCl2, and 1 mM MgCl2.
(§5) Polypropylene incubation tubes received 100 μl of the individual test compounds at various concentrations dissolved or suspended in 0.05M Tris, pH 7.4 containing 4 mg/ml methylcellulose, 100 μl of a solution of ^3 H-SCH 23390 in Tris buffer (final reaction mixture concentration=0.3 nM) or 100 μl of a solution of ^3 H-spiperone in Tris buffer (final concentration=0.2 nM) and 800 μl of tissue suspension (ca. 3 mg/assay). Tubes were incubated at 37° C. for 15 minutes and rapidly vacuum filtered through Whatman GF/B filters and rinsed 4 times with 4 ml of ice cold 50 mM Tris buffer, pH 7.4. The filters were transferred to scintillation vials, equilibated with 10 ml of scintillant (Scintosol, Isolab, Inc.) for 16 hours at 25° C. and the radioactivity determined in a liquid scintillation counter. Ki values were determined as described by Billard et al. using the relationship Ki = IC50 /(1+([L]/KD)) wherein IC50 =concentration of test drug necessary to displace 50% of specifically bound ^3 H-Sch 23390, [L]=concentration of radioligand used in the assay, and KD =dissociation constant.

dopamine D-1 receptor = biological target: T2, dopamine D-1 receptor (Rattus norvegicus, UniProt P18901); assay: Competitive inhibition assay, displacement of 3H-SCH 23390 (D-1 receptor binding); parameters: species or system rat (male Sprague-Dawley, striatal tissue)
T2 construct: Striatal tissue was excised, pooled, and homogenized; from tissue; host or cells: rat striatum, washed membrane pellet (male Sprague-Dawley rats, Charles River)
From the text: as §1, §2, §3, §4, §5

[1] = Conditioned avoidance suppression (CAR) in rats; assay type: in vivo; settings: lowest dose significantly (P≤0.05) reducing avoidance responding, rat, in mg/kg
Method: A series of experiments was carried out to assess the ability of the compounds of this invention to suppress the conditioned avoidance response (CAR) in rats.
Rats were required to jump onto a platform located 6.75 inches (17.15 cm) above the grid floor of an experimental chamber in response to a 5-second tone to avoid a 10-second foot shock (0.6 ma). Each experimental session consisted of 20 such trials presented at 30-second intervals. A correct CAR is scored whenever the rat jumps onto the platform during the tone (prior to foot shock). An escape response is scored when the rat jumps onto the platform during a shock. A response failure is defined as the lack of an escape response during the 10-second shock period.
Groups of 6-8 rats were trained in two consecutive days (total of 40 trials). Rats that reached criterion on day 2 (correct CARs on 16 or more of the 20 trials) were treated with either a test drug or vehicle on day 3. Suppression of CAR was analyzed statistically using Student's t-test comparing the performance of rats on day 2 with their performance following drug on day 3.

[2] = Squirrel monkey conditioned avoidance response (CAR) test; assay type: in vivo; settings: for MEAN (±SE) NUMBER OF […] 6 HOURS POST-TREATMENT: 10 mg/kg p.o., vehicle 59.1 + 0.9 (N=7); for ability to significantly decrease the number of avoidances six hours after dosing (duration): 10 mg/kg po, six hours prior to testing; for ED50: Primates, po
From the text: This test was designed to measure the effective duration of candidate compounds.
Male or female squirrel monkeys weighing 800-1200 g housed one per cage were utilized. Initially each monkey was taught to terminate a 3 mA electric shock delivered through the grid floor of the test cage and an overlapping tone by depressing a lever in the cage.
In the second phase of the testing, a ten second tone is turned on prior to the shock component. A lever press during the sounding of the tone terminates the tone and prevents the occurrence of the shock component and is denoted as an "avoidance".
The compound testing was commenced after three consecutive days of re-testing. […] The monkey must achieve at least an 85% correct avoidance before drug testing commences. If this minimal avoidance level is achieved, the next day the monkey is orally dosed or injected with the subject compounds in the appropriate vehicle and the number of avoidances are recorded. An animal is defined as having been "affected" by any drug treatment if there is a 50% loss of avoidance behavior relative to the performance of the animal when only the vehicle was injected. The minimal effective dose (MED) is defined as that dose producing an effect in at least 50% of the animals.
A test was conducted to determine the effective duration of a compound of the present invention, 6,7,7a,8,9,13b-hexahydro-3-chloro-2-hydroxy-7-methyl-5H-benzo[ d]naphtho[2,1-b]azepine, denoted as Compound A, compared to a known compound, (d)-7-chloro-8-hydroxy-3-methyl-1-phenyl-2,3,4,5-tetrahydro-1h-3-benzazepine maleate, denoted as Compound B (Sch 23390)
The duration of each compound was determined by administering a 10 mg/kg po dose six hours prior to testing.

[3] = rat striatum, 3H-spiperone 0.2 nM, pH 7.4, 37° C., 15 min, read-out: Ki, 3H-Spip
[4] = rat striatum, 3H-SCH 23390 0.3 nM, pH 7.4, 37° C., 15 min, read-out: Ki, 3H-23390

T2 sequence (P18901 whole entry): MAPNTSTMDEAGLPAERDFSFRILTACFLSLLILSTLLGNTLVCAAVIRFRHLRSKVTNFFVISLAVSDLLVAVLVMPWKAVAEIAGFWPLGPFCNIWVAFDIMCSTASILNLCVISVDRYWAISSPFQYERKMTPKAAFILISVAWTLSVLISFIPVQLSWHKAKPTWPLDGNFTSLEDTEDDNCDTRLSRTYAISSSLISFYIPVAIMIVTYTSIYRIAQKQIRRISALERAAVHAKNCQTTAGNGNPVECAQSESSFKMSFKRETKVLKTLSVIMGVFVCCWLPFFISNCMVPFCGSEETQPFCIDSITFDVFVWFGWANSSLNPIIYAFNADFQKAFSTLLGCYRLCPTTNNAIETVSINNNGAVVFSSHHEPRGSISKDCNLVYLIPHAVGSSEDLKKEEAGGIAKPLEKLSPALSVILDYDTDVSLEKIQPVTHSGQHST
T1 sequence (P61169 whole entry): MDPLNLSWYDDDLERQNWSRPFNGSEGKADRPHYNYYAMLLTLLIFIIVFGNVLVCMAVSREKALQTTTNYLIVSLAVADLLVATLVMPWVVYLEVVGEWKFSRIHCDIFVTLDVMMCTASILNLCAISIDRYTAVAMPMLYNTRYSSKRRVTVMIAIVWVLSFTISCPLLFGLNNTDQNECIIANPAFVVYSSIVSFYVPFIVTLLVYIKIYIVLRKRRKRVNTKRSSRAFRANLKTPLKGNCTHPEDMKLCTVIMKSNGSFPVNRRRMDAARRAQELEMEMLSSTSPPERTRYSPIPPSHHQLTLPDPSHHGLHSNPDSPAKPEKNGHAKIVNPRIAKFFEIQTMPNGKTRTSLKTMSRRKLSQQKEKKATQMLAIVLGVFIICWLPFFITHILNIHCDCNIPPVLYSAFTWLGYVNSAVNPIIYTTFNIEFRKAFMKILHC

CN1CCc2cc(Cl)c(O)cc2[C@@H]2c3ccccc3C[C@H]21 (relative stereo) [CH2, 0, trans, Cl, OH, trans-5,6,7,7a,8,12b-Hexahydro-2-hydroxy-3-chloro-7-methyl-benz[d]indeno[2,1-b]azepine]
Ki (D-2 receptor; [3]): 2600 nM | Ki (dopamine D-1 receptor): 10 nM

COc1cc2c(cc1O)[C@H]1c3ccccc3CC[C@H]1N(C)CC2 (relative stereo) [CH2, 1, cis, CH3O, OH]
Ki (D-2 receptor): > 100000 nM | Ki (dopamine D-1 receptor; [4]): 6450 nM

COc1cc2c(cc1O)CCN(C)[C@@H]1CCc3ccccc3[C@H]21 (relative stereo) [CH2, 1, cis, HO, CH3O]
Ki (D-2 receptor): > 100000 nM

Cc1cc2c(cc1O)[C@H]1c3ccccc3CC[C@@H]1N(C)CC2 (relative stereo) [CH2, 1, trans, CH3, OH, trans-6,7,7a,8,9,13b-hexahydro-2-hydroxy-3-methyl-7-methyl-5 H-benzo[d]naphtho[2,1-b]azepine]
Ki (D-2 receptor): 7200 nM | Ki (dopamine D-1 receptor; [4]): 119 nM

COc1cc2c(cc1O)[C@H]1c3ccccc3CC[C@@H]1N(C)CC2 (relative stereo) [CH2, 1, trans, CH3O, OH, trans-6,7,7a,8,9,13b-Hexahydro-2-hydroxy-3-methoxy-7-methyl-5H-benzo[d]naphtho[2,1-b]azepine]
Ki (D-2 receptor): 2500 nM | Ki (dopamine D-1 receptor): 23 nM | CAR (MED) ([1]; po): 30 | CAR (MED) ([1]; sc): 0.3-1

CN1CCc2cc(Cl)c(N)cc2[C@H]2c3ccccc3CC[C@@H]21 (relative stereo) [CH2, 1, trans, Cl, NH2]
Ki (D-2 receptor; [3]): 4170 nM | Ki (dopamine D-1 receptor): 70 nM | CAR (MED) ([1]; po): 3

CN1CCc2cc(Cl)c(O)cc2[C@H]2c3ccccc3CC[C@@H]21 (relative stereo) [CH2, 1, trans, Cl, OH, trans-6,7,7a,8,9,13b-Hexahydro-3-chloro-2-hydroxy-7-methyl-5H-benzo[d]naphtho[2,1-b]azepine]
CAR (MED) ([1]; po): 30 | CAR (MED) ([1]; sc): 0.3

CN1CCc2ccc(O)cc2[C@H]2c3ccccc3CC[C@@H]21 (relative stereo) [CH2, 1, trans, H, OH, trans-6,7,7a,8,9,13b-Hexahydro-2-hydroxy-7-methyl-5H-benzo[d]naphtho[2,1-b]azepine]
Ki (D-2 receptor; [3]): 3500 nM | Ki (dopamine D-1 receptor): 80 nM

COc1cc2c(cc1O)CCN(C)[C@H]1CCc3ccccc3[C@H]21 (relative stereo) [CH2, 1, trans, HO, CH3O, trans-6,7,7a,8,9,13b-Hexahydro-3-hydroxy-2-methoxy-7-methyl-5H-benzo[d]naphtho[2,1-b]azepine]
Ki (D-2 receptor): > 100000 nM

COc1cc2c(cc1O)[C@H]1c3ccccc3CCC[C@@H]1N(C)CC2 (relative stereo) [CH2, 2, trans, CH3O, OH]
Ki (D-2 receptor; [3]): > 100000 nM | Ki (dopamine D-1 receptor; [4]): 292 nM | CAR (MED) ([1]; sc): 10

COc1cc2c(cc1O)CCN(C)[C@H]1CCCc3ccccc3[C@H]21 (relative stereo) [CH2, 2, trans, HO, CH3O]
Ki (D-2 receptor; [3]): > 100000 nM | Ki (dopamine D-1 receptor; [4]): 7730 nM | CAR (MED) ([1]; sc): 10

CN1CCc2ccc(O)cc2[C@@H]2c3ccccc3OC[C@H]21 (relative stereo) [O, 1, trans, H, OH, trans-6,6a,7,8,9,13b-Hexahydro-7-methyl-[1]benzopyrano[4,3-a][3]benzazepin-12-ol]
Ki (dopamine D-1 receptor; [4]): 121 nM

CN1CCc2cc(Cl)c(O)cc2[C@H]2c3ccccc3CC[C@@H]21 [CH2, 1, 7b(R):7a(S)(-), Cl, OH, (-)-trans-6,7,7a,8,9,13b-Hexahydro-3-chloro-2-hydroxy-7-methyl-5H-benzo[b]naphtho[2,1-b]azepine]
CAR (MED) ([1]; po): 30

CN1CCc2cc(Cl)c(O)cc2[C@@H]2c3ccccc3CC[C@H]21 [CH2, 1, 7b(S):7a(R)(+), Cl, OH, (+)-trans-6,7,7a,8,9,13b-hexahydro-3-chloro-2-hydroxy-7-methyl-5H-benzo[d]naphtho[2,1-b]azepine]
CAR (MED) ([1]; po): > 30

CN1CCc2cc(Cl)c(O)cc2C2c3ccccc3CCC21 (stereo not shown) [Compound A, 6,7,7a,8,9,13b-hexahydro-3-chloro-2-hydroxy-7-methyl-5H-benzo[d]naphtho[2,1-b]azepine]
MEAN (±SE) NUMBER OF […] 6 HOURS POST-TREATMENT [2]: 23.9 + 7.5 | ability to significantly decrease the number of avoidances six hours after dosing (duration) [2]: significant decrease in the number of avoidances (≤0.05) | ED50 ([2]; 1 h, administered 60 minutes prior to the test, read-out: ED50): ~1.6 mg/kg

CN1CCc2cc(Cl)c(O)cc2[C@@H](c2ccccc2)C1 [Compound B, (d)-7-chloro-8-hydroxy-3-methyl-1-phenyl-2,3,4,5-tetrahydro-1h-3-benzazepine maleate, reference compound]
MEAN (±SE) NUMBER OF […] 6 HOURS POST-TREATMENT [2]: 59.7 + 0.3 | ability to significantly decrease the number of avoidances six hours after dosing (duration) [2]: inactive | ED50 ([2]; 0.5 h): 2.4 mg/kg
